23 molecules from ChEMBL document CHEMBL1667753, “Synthesis of 2-(aminomethyl)aziridines and their microwave-assisted ring opening to 1,2,3-triaminopropanes as novel antimalarial pharmacophores” (Eur J Med Chem, 2011) can be followed below.

The IC50 is the point on the concentration scale where inhibition reaches its midpoint. A high value points to lower potency.

Each structure is given as a SMILES string. Bounds are passed on as bounds.

The nature of series [1]: Selectivity index, ratio of IC50 for CHO cells to IC50 for chloroquine-sensitive Plasmodium falciparum D10. It is filed as toxicity, cell-based. The following applies: hamster, read-out: Ratio IC50.
A further series concerns CHO. In words: Cytotoxicity against CHO cells by MTT assay. It is filed as cell-based. To be noted: Cricetulus griseus. (Tetrazolium assays rely on reduction of a dye to a coloured formazan, in cell work by metabolically active cells.)
Series [2] concerns Plasmodium falciparum. In words: Antiplasmodial activity against chloroquine-resistant Plasmodium falciparum Dd2 by parasite LDH assay. The format is functional, organism-based.
Series [3] relates to Plasmodium falciparum. In words: Antiplasmodial activity against chloroquine-sensitive Plasmodium falciparum D10 by parasite LDH assay. It is filed as functional, organism-based.
The test system of series [4] is Plasmodium falciparum. In words: Resistance index, ratio of IC50 for chloroquine-resistant Plasmodium falciparum Dd2 to IC50 for chloroquine-sensitive Plasmodium falciparum D10. The format is functional.

For the molecule `CCN(CC)CC1CN1Cc1ccc(Cl)cc1` (racemic), in series [1], the selectivity ratio is 38.1. Besides, the results for the IC50 in the series on CHO, in the series with Plasmodium falciparum [2] and with Plasmodium falciparum [3] were 247 µM, 23.7 µM and 6.49 µM, respectively. In the series with Plasmodium falciparum [4], the “Ratio IC50” value was 3.7.

With `CCN(CC)CC(CN(CC)CC)NCc1ccc(Cl)cc1`, in series [1], the selectivity ratio was determined as 9.1. In addition, the IC50 was 76.4 µM in the series with CHO, 19.8 µM with Plasmodium falciparum [2] and 8.41 µM in the series on Plasmodium falciparum [3]. For the same molecule, the “Ratio IC50” value in the series with Plasmodium falciparum [4] worked out at 2.4.

For `Nc1ncnc2c1ncn2CC1CN1Cc1ccc(Cl)cc1` (racemic), the IC50 with Plasmodium falciparum [3] is over 300 µM.

For `CCN(CC)CC(Cn1cc(C)c(=O)[nH]c1=O)NCc1ccc(Cl)cc1` (racemic), the midpoint of inhibition with Plasmodium falciparum [3], the IC50, lay at 71.7 µM. In other words, the double-digit micromolar range.

As to `CCN(CC)CC(Cn1cncn1)NCc1ccc(Cl)cc1` (racemic), the figures for the IC50 in the series with CHO, with Plasmodium falciparum [2] and in the series on Plasmodium falciparum [3] were over 300 µM, 13.1 µM and 6.52 µM, respectively. Further, in the series on Plasmodium falciparum [4], the “Ratio IC50” value was found to be 2.

For the molecule `CCN(CC)CC(Cn1cncn1)NCc1ccc(OC)cc1` (racemic), the concentration for half-maximal inhibition (IC50) in the series with CHO came to 159 µM; in the series with Plasmodium falciparum [2], 80.9 µM; with Plasmodium falciparum [3], 1.98 µM. Moreover, the “Ratio IC50” value with Plasmodium falciparum [4] amounted to 41.1.

As for `CCN(CC)CC(Cn1cnc2c(N)ncnc21)NCc1ccc(Cl)cc1` (racemic), half-maximal inhibition in the series with Plasmodium falciparum [3] (IC50) required 78.2 µM.

`COc1ccc(CN2CC2Cn2cncn2)cc1` (racemic): the IC50 with CHO was over 400 µM; in the series with Plasmodium falciparum [2] it was 23.2 µM; in the series on Plasmodium falciparum [3], 4.18 µM. The “Ratio IC50” value in the series on Plasmodium falciparum [4] is on record as 5.6.

Take `CCN(CC)CC1CN1Cc1ccccc1` (racemic): in series [1], the selectivity ratio came to 26.3. Further, the 50% inhibitory concentration (IC50) was 402 µM in the series on CHO, 48.3 µM in the series on Plasmodium falciparum [2] and 15.2 µM in the series on Plasmodium falciparum [3]. For the same molecule, the “Ratio IC50” value in the series with Plasmodium falciparum [4] came out at 3.2.

In the case of `CCN(CC)CC(Cn1cnc2c(N)ncnc21)NCc1ccccc1` (racemic), in the series on Plasmodium falciparum [3], the IC50 was 214 µM.

Regarding `c1ccc(CN2CC2Cn2cncn2)cc1` (racemic), inhibition with Plasmodium falciparum [3] was half-maximal at 80.7 µM (IC50).

In turn, `CC[C@H]1CN2CCc3cc(OC)c(OC)cc3[C@@H]2C[C@@H]1C[C@H]1NCCc2cc(OC)c(OC)cc21` [EMETINE] returned an IC50 with CHO of 0.127 µM.

For the molecule `CCN(CC)CC(Cn1cncn1)NCc1ccccc1` (racemic), the half-maximal inhibitory concentration (IC50) in the series with CHO was over 300 µM; with Plasmodium falciparum [2] it was 98.8 µM; in the series with Plasmodium falciparum [3], 42.9 µM. Moreover, the “Ratio IC50” value in the series on Plasmodium falciparum [4] came out at 2.3.

As for `CCN(CC)CC(CN(CC)CC)NCc1ccccc1`, the values for the IC50 in the series on CHO, with Plasmodium falciparum [2] and in the series with Plasmodium falciparum [3] were over 300 µM, 30.2 µM and 23.7 µM, respectively. In addition, the “Ratio IC50” value with Plasmodium falciparum [4] was 1.3.

For the molecule `CCN(CC)CC1CN1Cc1ccc(OC)cc1` (racemic), in series [1], the selectivity ratio was found to be 22.6. Also, the IC50 with CHO was determined as 193 µM; with Plasmodium falciparum [2], 18 µM; in the series on Plasmodium falciparum [3], 8.54 µM. Also, the “Ratio IC50” value in the series with Plasmodium falciparum [4] worked out at 2.1.

Regarding `CCN(CC)CC(Cn1cc(C)c(=O)[nH]c1=O)NCc1ccc(OC)cc1` (racemic), in the series with Plasmodium falciparum [3], the IC50 came to 128 µM.

In the series on Plasmodium falciparum [3], `Clc1ccc(CN2CC2Cn2cncn2)cc1` (racemic) registered an IC50 of 126 µM.

In the series with Plasmodium falciparum [3], `CCN(CC)CC(Cn1cnc2c(N)ncnc21)NCc1ccc(OC)cc1` (racemic) yielded an IC50 of 81.9 µM. This IC50 is about 1.5-fold lower than that of the molecule before.

`Cc1cn(CC2CN2Cc2ccc(Cl)cc2)c(=O)[nH]c1=O` (racemic) had an IC50 in the series on Plasmodium falciparum [3] of 138 µM.

In the series with Plasmodium falciparum [3], `COc1ccc(CN2CC2Cn2cnc3c(N)ncnc32)cc1` (racemic) returned an IC50 of 267 µM.

Turning to `COc1ccc(CN2CC2Cn2cc(C)c(=O)[nH]c2=O)cc1` (racemic), in the series on Plasmodium falciparum [3], the IC50 amounted to 172 µM.

As for `CCN(CC)CC(CN(CC)CC)NCc1ccc(OC)cc1`, in series [1], the selectivity ratio was 24.2. Besides, the results for the IC50 with CHO, with Plasmodium falciparum [2] and in the series with Plasmodium falciparum [3] were 170 µM, 13.5 µM and 6.66 µM, respectively. In addition, the “Ratio IC50” value in the series on Plasmodium falciparum [4] turned out to be 2.

On to `Nc1ncnc2c1ncn2CC1CN1Cc1ccccc1` (racemic), for which the IC50 in the series with Plasmodium falciparum [3] was over 350 µM.
